Measured values from patent US20210163404A1, “NOVEL UREA COMPOUNDS AND BIOISOSTERES THEREOF AND THEIR USE FOR TREATING INFLAMMATION AND INFLAMMATION-RELATED PATHOLOGIES” (UNIVERSITÉ LAVAL, priority 2017, published 2021).

Assays:
[1] = test system: HaCaT keratinocyte cell line; assay: Antiproliferative activity (NCI procedure, sulforhodamine B), HaCaT; type: cell-based, human; conditions: Homo sapiens, HaCaT, 48 h; for GI50: Table 2; for IC50: unit inferred, tested 781 nM to 100 μM
Procedure: (§1) The antiproliferative activity of compounds 3a-b, 4a-e, 5a-e and 6a-e was subsequently evaluated using the human HT-29 colon adenocarcinoma and the A549 adenocarcinoma alveolar epithelial cancer cell lines, the HaCaT spontaneously transformed aneuploid immortal keratinocyte cell line and the HDFn neonatal dermal fibroblast cell line (Table 2). Cell growth inhibition was assessed according to the NCI/NIH Developmental Therapeutics Program.
(§2) The antiproliferative activity assay of all compounds was assessed using the procedure recommended by the National Cancer Institute for its drug screening program with minor modifications. Briefly, 96-well microtiter plates were seeded with 75 μL of a suspension of either HaCaT (5×10^3), HT-29 (3.0×10^3), A549 (3.0×10^3) or HDFn (3×10^3) cells per well in DMEM and incubated for 24 h at 37° C. in a moisture-saturated atmosphere containing 5% CO2. Compounds freshly solubilized in DMSO (40 mM) were diluted in fresh DMEM, and 75 μL aliquots containing serially diluted concentrations of the compound were added. Final compound concentrations ranged from 100 μM to 781 nM. DMSO was maintained at a concentration of <0.5% (v/v) to avoid any related cytotoxicity. Plates were subsequently incubated for 48 h. Cell growth was then stopped by the addition of cold trichloroacetic acid to the wells (10% w/v, final concentration), followed by a 1 h incubation period at 4° C. The plates were washed 4-times with water. A sulforhodamine B solution (75 μL; 0.1% w/v) in acetic acid (1%) was subsequently added to each well and the plates incubated over a 15 min period while at room temperature. After staining, any unbound dye was removed by washing 4-times with an acetic acid solution (1%). Bound dye was solubilized in 20 mM Tris base and the absorbance was measured at an optimal wavelength (530-568 nm) using a μQuant® Universal microplate spectrophotometer (BioTek, Winooski, Vt.). The measurements for treated cells were compared with measurements from control cell plates fixed on treatment day and the percentage of cell growth inhibition was calculated for each drug. The experiments were performed at least twice in triplicate. The assays were considered valid when the coefficient of variation for a given set of conditions and within the same experiment was <10%.

[2] = test system: IL-6; assay: IL-6 expression in HaCaT cells stimulated with IL-17A and TNFα (ELISA); type: cell-based, human; conditions: 10 μM solutions; HaCaT stimulated with IL-17A and TNFα; mean of five experiments in duplicate
Source text: The effect of compounds 3a-b, 4a-e, 5a-e and 6a-e on the expression of IL-6 was subsequently assessed using the HaCaT spontaneously transformed aneuploid immortal keratinocyte cell line, stimulated by the addition of IL-17A and TNFα in the culture medium (Table 1). Curcumin and ibuprofen were used as known IL-6 expression inhibitors. DMSO was used for solubilizing the drugs. […] Indeed, the inhibitory effect of these molecules was at least equivalent to that of curcumin [27] and ibuprofen, both recognized as anti-inflammatory drugs. The inhibitory effect of the substituted phenyl cycloalkylureas in accordance with an embodiment of the present disclosure on proinflammatory cytokines was also found at the mRNA level. Indeed, the mRNAs of the cytokines IL-6 and TNF-α as well as the mRNA of the chemokine IL-8 were lowered in TNF-α/IL-17A-stimulated HaCaT cells. Similar results were obtained in THP-1 cells stimulated with LPS where treatments with CHEU and 4e diminished the mRNA levels of the cytokines IL-1B, IL-6 and TNF-α in addition to the mRNA levels of the chemokine IL-8. It is surmised that the anti-inflammatory mechanism of action of the compounds of the present disclosure is likely mediated, at least in part, by modulating the phosphorylation state of the MAP kinase p38. […] Addition of a compound in accordance with an embodiment of the present disclosure, prior to stimulation with the aforementioned cytokines, decreases the level of p-p38 at 30-60 minutes post-stimulation. This diminution in p-p38 levels destabilizes the mRNAs of pro-inflammatory cytokines, non-limiting examples of which include TNF-α and IL-6. Moreover, it is surmised that the effect of the compounds of the present disclosure on p-p38 is potentially mediated by the activation of the phosphatase named DUSP1.
HaCaT cells (1×10^5) were suspended in DMEM culture media (500 μL) and incubated for 24 h in 24-well microtiter plates at 37° C. in a moisture-saturated atmosphere containing 5% CO2. Compounds were solubilized in DMSO and diluted in fresh DMEM. The compound (500 μL) was then added to the cell medium to obtain a final concentration of […] and the cells incubated over a period of 1 hour. In the meantime, IL-17α (200 ng/mL) and TNFα (20 ng/mL) (PeproTech, Rocky Hill, N.J.) were added to the drug solution in DMEM. Following the initial incubation of the cells, the culture medium was aspirated from each well and the IL-17α+ TNFα+ compound solution was added to each well for incubation (6 hours). The culture media was then removed and transferred to a clean tube (1.5 mL) at −80° C. until the ELISA test was performed. The presence of IL-6 in the cell media was determined using an IL-6 human Duoset ELISA kit (Fisher Scientific, Ottawa, On.) according to the manufacturer's instructions. Standards and samples were prepared and assessed in duplicate. Two separate replicates were performed for each sample. The absorbance was measured at 450 nm and 540 nm using a TECAN infinite M1000 plate reader.

[3] = test system: A549 adenocarcinoma alveolar epithelial cancer cells; assay: Antiproliferative activity (NCI procedure, sulforhodamine B), A549; type: cell-based, human; conditions: Homo sapiens, A549, 48 h; for GI50: Table 2; for IC50: unit inferred, tested 781 nM to 100 μM
Procedure: as §1, §2

[4] = test system: HT-29 colon adenocarcinoma cells; assay: Antiproliferative activity (NCI procedure, sulforhodamine B), HT-29; type: cell-based, human; conditions: Homo sapiens, HT-29, 48 h; for GI50: Table 2; for IC50: unit inferred, tested 781 nM to 100 μM
Procedure: as §1, §2

[5] = test system: HDFn neonatal dermal fibroblast cell line; assay: Antiproliferative activity (NCI procedure, sulforhodamine B), HDFn; type: cell-based, human; conditions: Homo sapiens, Fibroblast, 48 h; for GI50: Table 2; for IC50: unit inferred, tested 781 nM to 100 μM
Procedure: as §1, §2

[6] = test system: HaCaT cells; assay: Cell cycle analysis by flow cytometry; type: cell-based, human; conditions: 10 μM, 24 h
Procedure: The effect of compounds 3a-b, 4e, 5b-c, 6a and 6e on cell cycle progression was subsequently assessed using a flow cytometer in accordance with established experimental protocols to evaluate any potential drug toxicity at specific phases of the cell cycle (Table 3).
HaCaT cells (2.5×10^5) were incubated with compounds 3a-b, 4e, 5b-c, 6a and 6e and curcumin (10 μM) over a period of 24 h. The cells were subsequently trypsinized, washed with PBS, resuspended in PBS (250 μL), fixed by the addition of ice-cold EtOH (750 μL) under agitation and stored at −20° C. until analysis. Prior to FACS analysis, cells were washed with PBS and resuspended in PBS (500 μL) containing 4′,6′-diamidino-2-phenylindole (DAPI) (2 μg/mL). The cell cycle was analyzed using an LSR II flow cytometer (BD Biosciences, Franklin Lakes, N.J.).

CC(C)(C)c1cccc(NC(=O)NC2CCCC2)c1 [Compound 48, 1-(3-(t-Butyl)phenyl)-3-cyclopentylurea]
GI50 [1]: > 100 µM
IC50 ([1]; Table 6): ≥ 100 µM
Expression of IL-6, HaCaT [2]: 74.6 ± 6.7 pg/mL
GI50 [3]: 34 µM
IC50 ([3]; Table 6): 34 µM
GI50 [4]: 27 µM
IC50 ([4]; Table 6): 27 µM
GI50 [5]: 84 µM
IC50 ([5]; Table 6): 84 µM
melting point: 152 to 154 °C

O=C(Nc1ccc(I)cc1)NC1CCCC1 [Compound 24, 1-Cyclopentyl-3-(4-iodophenyl)urea]
GI50 [1]: > 100 µM
IC50 ([1]; Table 6): ≥ 100 µM
Expression of IL-6, HaCaT [2]: 65.1 ± 7.6 pg/mL
GI50 [3]: 62 µM
IC50 ([3]; Table 6): 62 µM
GI50 [4]: 9.7 µM
IC50 ([4]; Table 6): 9.7 µM
GI50 [5]: > 100 µM
IC50 ([5]; Table 6): ≥ 100 µM
melting point: 188 to 191 °C

CCNC(=O)Nc1ccc(C(C)(C)C)cc1 [tBEU, reference compound]
Cell cycle progression G0-G1 [6]: 55.5
Cell cycle progression G2-M [6]: 19.1
Cell cycle progression S [6]: 25.3

CC(C)(C)c1ccc(NC(=O)NC2CC2)cc1 [Compound 27, 1-(4-(t-Butyl)phenyl)-3-cyclopropylurea]
GI50 [1]: > 100 µM
IC50 ([1]; Table 6): ≥ 100 µM
Expression of IL-6, HaCaT [2]: 91.9 ± 7.6 pg/mL
GI50 [3]: > 100 µM
IC50 ([3]; Table 6): ≥ 100 µM
GI50 [4]: 85 µM
IC50 ([4]; Table 6): 85 µM
GI50 [5]: 55 µM
IC50 ([5]; Table 6): 55 µM
melting point: 138 to 139 °C

O=C(NCC1CCC1)Nc1cccc(I)c1 [Compound 39, 1-(Cyclobutylmethyl)-3-(3-iodophenyl)urea]
GI50 [1]: 31 µM
IC50 ([1]; Table 6): 31 µM
Expression of IL-6, HaCaT [2]: 90.2 ± 11.1 pg/mL
GI50 [3]: 25 µM
IC50 ([3]; Table 6): 25 µM
GI50 [4]: 25 µM
IC50 ([4]; Table 6): 25 µM
GI50 [5]: 15 µM
IC50 ([5]; Table 6): 15 µM
melting point: 138 to 140 °C

O=C(Nc1cccc(I)c1)NC1CC1 [Compound 36, 1-Cyclopropyl-3-(3-iodophenyl)urea]
GI50 [1]: > 100 µM
IC50 ([1]; Table 6): ≥ 100 µM
Expression of IL-6, HaCaT [2]: 57.3 ± 4.4 pg/mL
GI50 [3]: 84 µM
IC50 ([3]; Table 6): 84 µM
GI50 [4]: > 100 µM
IC50 ([4]; Table 6): ≥ 100 µM
GI50 [5]: 79 µM
IC50 ([5]; Table 6): 79 µM
melting point: 153 to 154 °C

O=C(Nc1ccc(I)cc1)NC1CC1 [Compound 20, 1-Cyclopropyl-3-(4-iodophenyl)urea]
GI50 [1]: > 100 µM
IC50 ([1]; Table 6): ≥ 100 µM
Expression of IL-6, HaCaT [2]: 47.9 ± 4.5 pg/mL
GI50 [3]: > 100 µM
IC50 ([3]; Table 6): ≥ 100 µM
GI50 [4]: 82 µM
IC50 ([4]; Table 6): 82 µM
GI50 [5]: 95 µM
IC50 ([5]; Table 6): 95 µM

CC(C)(C)c1ccc(NC(=O)NCC2CCC2)cc1 [Compound 30, 1-(4-(t-Butyl)phenyl)-3-(cyclobutylmethyl)urea]
GI50 [1]: 35 µM
IC50 ([1]; Table 6): 35 µM
Expression of IL-6, HaCaT [2]: 70.6 ± 7.6 pg/mL
GI50 [3]: > 100 µM
IC50 ([3]; Table 6): ≥ 100 µM
GI50 [4]: 21 µM
IC50 ([4]; Table 6): 21 µM
GI50 [5]: 8.2 µM
IC50 ([5]; Table 6): 8.2 µM
melting point: 179 to 184 °C

S=C(Nc1cccc(I)c1)NC1CCCC1 [Compound 98]
IC50 ([1]; Table 8): 32.8 µM
IC50 ([3]; Table 8): 21.9 µM
IC50 ([4]; Table 8): 23.4 µM
IC50 ([5]; Table 8): 16.4 µM
melting point: 136 to 147 °C

S=C(NCC1CCC1)Nc1cccc(C2CCCCC2)c1 [Compound 106]
IC50 ([1]; Table 8): 14.9 µM
IC50 ([3]; Table 8): 17 µM
IC50 ([4]; Table 8): 13.2 µM
IC50 ([5]; Table 8): 4.9 µM
melting point: 102 to 110 °C

O=C(Nc1cccc(C2CCCCC2)c1)NC1CCCC1 [Compound 69]
IC50 ([1]; Table 6): 4 µM
IC50 ([3]; Table 6): 12 µM
IC50 ([4]; Table 6): 8.9 µM
IC50 ([5]; Table 6): 7.6 µM
melting point: 132 to 137 °C

CCCNC(=O)Nc1ccc(I)cc1 [Compound 3]
IC50 ([1]; Table 5): 94.9 µM
IC50 ([3]; Table 5): 82.7 µM
IC50 ([4]; Table 5): 51.9 µM
IC50 ([5]; Table 5): 81.3 µM
melting point: 197 to 199 °C
